System: chicken Red Blood cells (RBC)
Experiment: QS21 lytic activity, haemolysis assay (limit test)
Format: cell-based
Details: example QS21 curve, 150 mM sodium chloride buffer; OD 0.12
Experimental: QS21 is known to lyse red blood cells (RBC).
QS21 lytic activity was measured by a haemolysis assay using chicken Red Blood cells (RBC). RBC were centrifuged at 550 g at 4° C. Supernatant was discarded. The pellet was carefully resuspended in PBS buffer to reach the initial volume and the same operation was repeated until supernatant was no longer red (generally 3 times). The pellet was stored at 4° C. for 3 to 4 days maximum if not used directly (and washed again the day it is used) or was diluted around 10 times in buffer if used the same day.
A QS21 dose range curve was prepared in ASA buffer (in salt or in sorbitol buffer following the ASA sample tested) extemporaneously and the adjuvant samples (containing a 50 μg or 90 μg equivalent of QS21 meaning the equivalent of 500 μl or 900 μl ASA) were prepared. Final volume was adjusted to 900 μl in standards and samples with adequate buffer (containing or not sorbitol as a function of the buffer of the sample tested). Due to its opalescence, ASA interferes in optical density (OD). […] Optical density at 540 nm was measured after centrifugation. […]
1. Limit of detection (LOD) was defined as the lowest concentration of QS21 leading to an OD: • Higher than the base level (OD>0.1) • Around three times higher than OD's buffer (the “o μg” QS21) • In the ascendant part of the curve • Determined for each test. […]

Substance: QS21
- Limit of Detection (lowest QS21 amount giving lytic OD): 0.9 µg
